One data set concerns AMPK. The data set can be described thus: AMPK activation (levels of phosphorylated AMPK, Western blotting). Format: cell-based. The method, then: (§1) Biochemistry. Western blotting: Cells were lysed in the appropriate volume of lysis buffer (50 mM HEPES, 100 mM NaCl, 2 mM EDTA, 1% glycerol, 50 mM NaF, 1 mM Na3VO4, 1% Triton X-100, with protease inhibitors). The following antibodies were used: HSD17B4 (GeneTex, GTX103864), AMPK (Cell Signaling, 2532), pAMPK (Cell Signaling, 2535), ACC (Cell Signaling, 3676), pACC (Cell Signaling, 11818), p^70 (Cell Signaling, 2708), p-p^70 (Cell Signaling, 9914), S6 (Cell Signaling, 2217), pS6 (Cell Signaling, 4858), MCCA (GeneTex, GTX110062), tubulin (Hybridoma Bank, E7), Actin (Sigma, A1978), His-tag (BD Pharmingen, 552564).
In general terms: Immunoblotting shows a protein as a band on a membrane.

The test system of data set [1] is acetyl CoA carboxylase (ACC). The data set can be described thus: ACC phosphorylation / activation downstream of AMPK (Western blotting). Format: cell-based. As to the method:
as §1

A further data set deals with HSD17B4. The data set can be described thus: Streptavidin-bead pull-down from LS174T cell lysates, validated by Western blot. Format: binding. As to the method: (§2) Identification of the direct target of these AMPK activators involved incubation of 15d with LS174T cell lysates and a subsequent pull-down assay using biotinylated 15d bound to streptavidin beads. The binding proteins were eluted with 2.5 mM biotin and analyzed by 4-12% SDS-PAGE gel using colloidal blue staining (FIG. 2D). We identified two specific bands (F1 and F2) in the 15d-containing sample compared with the control samples containing only beads or only beads and biotin. These two bands were excised from gels and analyzed by NanoLC-ESI-MS/MS. The band F1 (FIG. 2D) contained two proteins: [1] peroxisomal hydroxysteroid 17-dehydrogenase-4 (HSD17B4); and [2] mitochondrial methylcrotonoyl-CoA carboxylase subunit alpha (MCCA). The band F2 also matched HSD17B4.
(§3) The multifunctional nature of HSD17B4 included two of the four enzymatic activities required for the beta-oxidation of very long-chain fatty acids (VLCFA) in the peroxisome. […] The HSD17B4 antibody (GeneTex) recognized the full-length and the C-terminal fragment (FIG. 2E).
(§4) Streptavidin-agarose pulldown: Biotinylated compound 15d (FIG. 2A) was incubated with cell lysates and streptavidin beads. The binding proteins were pulled down and analyzed by 4-12% SDS-PAGE as described previously. […]

The target of a further data set is T1, MCCA (Homo sapiens, UniProt Q96RQ3).
T1 construct: endogenous in cells; host or cells: LS174T colon cancer cells
T1 sequence (Q96RQ3 42-725): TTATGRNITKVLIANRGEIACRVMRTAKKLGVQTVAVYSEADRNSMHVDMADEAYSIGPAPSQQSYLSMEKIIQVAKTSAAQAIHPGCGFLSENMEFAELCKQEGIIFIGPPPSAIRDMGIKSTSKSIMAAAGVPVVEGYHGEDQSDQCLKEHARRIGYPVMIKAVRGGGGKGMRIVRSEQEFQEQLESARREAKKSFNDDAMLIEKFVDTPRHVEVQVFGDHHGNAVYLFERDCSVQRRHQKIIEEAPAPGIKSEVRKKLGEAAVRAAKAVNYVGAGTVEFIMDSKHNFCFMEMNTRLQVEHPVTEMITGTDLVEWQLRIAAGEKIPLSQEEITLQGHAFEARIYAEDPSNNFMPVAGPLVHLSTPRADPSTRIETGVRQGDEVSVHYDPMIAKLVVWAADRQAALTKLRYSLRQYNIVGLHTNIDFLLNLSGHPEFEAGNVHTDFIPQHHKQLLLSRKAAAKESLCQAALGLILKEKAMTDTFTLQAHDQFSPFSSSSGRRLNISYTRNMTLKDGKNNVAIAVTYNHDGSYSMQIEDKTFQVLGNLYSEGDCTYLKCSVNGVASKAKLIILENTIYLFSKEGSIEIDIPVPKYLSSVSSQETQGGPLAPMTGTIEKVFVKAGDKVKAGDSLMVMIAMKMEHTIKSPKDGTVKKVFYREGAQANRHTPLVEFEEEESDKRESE
Described as above. Format: binding. The method, then:
as §2, §3, §4

For data set [2], the system named is HSD17B4 (full-length and truncated constructs). The experiment in a line: Streptavidin bead-based pull-down with purified full-length and truncated HSD17B4 constructs. Format: binding. The note with it: purified protein from E. coli. The source says: (§5) We next sought to delineate if these cystisine-linked isoflavonoid inhibitors were selective for one of the two enzymatic activities, either the α,β-dehydrogenase or hydratase activity, found in HSD17B4. We generated a panel of truncated HSD17B4 constructs and purified these truncated proteins as well as the full-length protein from E. coli (FIG. 3A). We evaluated the binding of 15d to these constructs using the streptavidin bead-based pull-down assay.
(§6) Streptavidin-agarose pulldown: Biotinylated compound 15d (FIG. 2A) was incubated with cell lysates and streptavidin beads. The binding proteins were pulled down and analyzed by 4-12% SDS-PAGE as described previously. The protein bands were identified by NanoLC-ESI-MS/MS at ProtTech Inc. For binding and enzymatic assays, His-tagged HSD17B4 constructs were clone and truncated by PCR using pET28. The full-length and truncated proteins were purified from bacteria BL21.

The target of data set [3] is T2, HSD17B4 (full-length and truncated constructs) (Homo sapiens, UniProt P51659).
T2 construct: His-tag; made in house; host or cells: E. coli BL21 (pET28)
T2 sequence (P51659 1-736): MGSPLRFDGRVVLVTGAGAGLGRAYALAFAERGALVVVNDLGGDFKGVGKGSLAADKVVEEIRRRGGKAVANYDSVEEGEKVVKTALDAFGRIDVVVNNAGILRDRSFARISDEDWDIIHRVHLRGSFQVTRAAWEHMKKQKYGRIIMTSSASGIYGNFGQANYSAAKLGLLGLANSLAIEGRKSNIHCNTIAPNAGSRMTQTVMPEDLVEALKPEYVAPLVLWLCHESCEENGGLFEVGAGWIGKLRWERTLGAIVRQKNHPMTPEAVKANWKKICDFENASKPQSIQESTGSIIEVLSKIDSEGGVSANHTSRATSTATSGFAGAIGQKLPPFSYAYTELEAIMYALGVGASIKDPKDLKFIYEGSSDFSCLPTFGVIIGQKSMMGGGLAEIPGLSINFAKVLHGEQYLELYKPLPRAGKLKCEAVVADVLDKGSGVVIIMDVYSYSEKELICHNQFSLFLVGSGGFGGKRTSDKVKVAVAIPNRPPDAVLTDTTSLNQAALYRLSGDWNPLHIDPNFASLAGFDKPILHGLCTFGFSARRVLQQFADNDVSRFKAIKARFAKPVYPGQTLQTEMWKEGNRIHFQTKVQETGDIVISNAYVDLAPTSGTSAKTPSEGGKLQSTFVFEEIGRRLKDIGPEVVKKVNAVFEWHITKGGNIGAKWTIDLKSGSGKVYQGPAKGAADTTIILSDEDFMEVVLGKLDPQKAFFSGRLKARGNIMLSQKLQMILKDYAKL
Described as above. The data set is classed as binding. The note with it: purified protein from E. coli.
Excerpt: as §5, §6

In general, melting point refers to the temperature of the solid-liquid transition.

As for `Cc1oc2cc(OCCN3C[C@@H]4C[C@H](C3)c3cccc(=O)n3C4)ccc2c(=O)c1-c1ccc(Cl)cc1` [Compound 10d, (1R,5S)-3-(2-((3-(4-Chlorophenyl)-2-methyl-4-oxo-4H-chromen-7-yl)oxy)ethyl)-3,4,5,6-tetrahydro-1H-1,5-methanopyrido[1,2-a][1,5]diazocin-8(2H)-one], the melting point was in the range of 186 to 187 °C. For the same compound, the “AMPK-fold Activation (10 μM)” value in the data set on AMPK is reported as 2.2 fold.

For `O=c1cccc2n1C[C@H]1C[C@H]2CN(CC(O)CCCCOc2ccccc2)C1` (stereo partly drawn) [Compound 16, (1S,5S)-3-(2-Hydroxy-6-phenoxyhexyl)-3,4,5,6-tetrabydro-1H-1,5-methanopyrido[1,2-a][1,5]diazocin-8(2H)-one], in the data set with AMPK, the “AMPK activation (in words)” value is “inactive”.

In the case of `COc1ccc(-c2coc3cc(OCCN4C[C@@H]5C[C@H](C4)c4cccc(=O)n4C5)ccc3c2=O)cc1` [Compound 10b, (1R,5S)-3-(2-((3-(4-Methoxyphenyl)-4-oxo-4H-chromen-7-yl)oxy)ethyl)-3,4,5,6-tetrahydro-1H-1,5-methanopyrido[1,2-a][1,5]diazocin-8(2H)-one], the “AMPK-fold Activation (10 μM)” value in the data set on AMPK is recorded as 9.9 fold.

`O=C(CCCCOc1ccccc1)CN1C[C@@H]2C[C@@H](C1)c1cccc(=O)n1C2` [Compound 17, (1S,5S)-3-(2-oxo-6-phenoxyhexyl)-3,4,5,6-tetrahydro-1H-1,5-methanopyrido[1,2-a][1,5]diazocin-8(2H)-one]: in the data set with AMPK, the “AMPK activation (in words)” value was “inactive”.

As for `O=c1c(-c2ccc(Cl)cc2)coc2cc(O)ccc12` [Compound 3c, 3-(4-Chlorophenyl)-7-hydroxy-4H-chromen-4-one], in data set [1], the “activation of acetyl CoA carboxylase” value was “modest activation”. The “AMPK activation (in words)” value in the data set with AMPK is listed as “most active AMPK activators”.

`O=c1c(-c2ccccc2)coc2cc(OCCN3C[C@@H]4C[C@H](C3)c3cccc(=O)n3C4)ccc12` [Compound 10a, (1R,5S)-3-(2-((4-Oxo-3-phenyl-4H-chromen-7-yl)oxy)ethyl)-3,4,5,6-tetrahydro-1H-1,5-methanopyrido[1,2-a][1,5]diazocin-8(2H)-one] gave a melting point of 197 to 198 °C. Also, in the data set with AMPK, the “AMPK-fold Activation (10 μM)” value came to 3.6 fold.

The compound `Cc1oc2cc(O)ccc2c(=O)c1-c1ccc(Cl)cc1` [Compound 3d, 3-(4-Chlorophenyl)-7-hydroxy-2-methyl-4H-chromen-4-one] gave a melting point of 277 to 278 °C. Further, in data set [1], the “activation of acetyl CoA carboxylase” value is given as “modest activation”. Also, the “AMPK activation (in words)” value with AMPK is “most active AMPK activators”.

Turning to `Cc1oc2cc(OCCCCC(CN3C[C@@H]4C[C@@H](C3)c3cccc(=O)n3C4)=NNC(=O)CCOCCOCCOCCOCCNC(=O)CCCC[C@@H]3SCC4NC(=O)NC43)ccc2c(=O)c1-c1ccc(Cl)cc1` (stereo partly drawn) [Compound 15d, N-(22-((3-(4-chlorophenyl)-2-methyl-4-oxo-4H-chromen-7-yl)oxy)-15-oxo-18-(((1S,5S)-8-oxo-1,5,6,8-tetrahydro-2H-1,5-methanopyrido[1,2-a][,5]diazocin-3(4H)-yl)methyl)-3,6,9,12-tetraoxa-16,17-diazadocos-17-en-1-yl)-5-((4S)-2-oxohexahydro-1H-thieno[3,4-d]imidazol-4-yl)pentanamide], the “binding of HSD17B4 in pull-down” value in the data set with HSD17B4 is on record as “specific binding protein”. Further, at MCCA, the “binding of MCCA in pull-down” value is listed as “non-specific binding protein”. In data set [2], the “binding to N-terminus-truncated fragment C919” value is “strongly bound”; the “interaction with C-terminus-truncated fragment N634” value was “not the C-terminus-truncated fragments N318 and N634, interacted”. Also, the “interaction with full-length HSD17B4” value in data set [3] was “interacted”.

Values taken from patent publication US10188743B2, “Cytisine-linked isoflavonoid antineoplastic agents for the treatment of cancer” (UNIVERSITY OF KENTUCKY RESEARCH FOUNDATION, priority 2016, dated 2019).
